# Data taken from patent publication US11292811B2, “Long-acting prodrugs of entecavir, preparing methods and uses thereof” (priority 2017, dated 2022).
# Tests used:
# [1] = Pharmacokinetic test in the body of beagle (blood concentration of Entecavir after i.m. injection of prodrug suspension); assay type: in vivo
# Protocol: Three conventional male beagles were used in the test, and they were forbidden to eat for 12 hours before administering drugs, and drank water freely meanwhile. Entecavir-5′-docosanoate (prepared in Example 4), Entecavir-5′-ursodesoxycholate (prepared in Example 5) and entecavir-5′-stearoylamidobutanoate (prepared in Example 19) were used to prepare a suspension, and were intramuscularly injected in a dosage of 0.508 mg/kg, 0.552 mg/kg, and 0.533 mg/kg respectively.
# Treatment of blood plasma sample: 100 μL of blood plasma sample was added to 20 μL of methanol-water (V:V, 1:1) and 20 μL of interior label (2 μg/mL apigenin), and mixed through vortex. 200 μL of methanol was added and mixed through vortex, followed by being centrifuged under a centrifugal force of 14,000 g for 30 minutes. 10 μL of supernate was collected for analysis. The results are shown in Table 1, Table 2, and Table 3, as well as FIG. 1, FIG. 2 and FIG. 3.
# [2] = cited from earlier work
compound,measurement,setting,value
C=C1[C@H](COC(=O)CCCNC(=O)CCCCCCCCCCCCCCCCC)[C@@H](O)C[C@@H]1n1cnc2c(=O)[nH]c(N)nc21 [Entecavir-5′-stearoylamidobutanoate],Release of injectable suspension after intramuscular injection,"[1]; dog, in vivo",released sustainably and steady
C=C1[C@H](COC(=O)CC[C@@H](C)[C@H]2CC[C@H]3[C@@H]4[C@@H](O)C[C@@H]5C[C@H](O)CC[C@]5(C)[C@H]4CC[C@]23C)[C@@H](O)C[C@@H]1n1cnc2c(=O)[nH]c(N)nc21 [Entecavir-5′-ursodesoxycholate],Release of injectable suspension after intramuscular injection,"[1]; beagle, intramuscularly injected suspension",released sustainably and steady
C=C1[C@H](CO)[C@@H](O)C[C@@H]1n1cnc2c(=O)[nH]c(N)nc21 [Entecavir],Cmax decrease when administered with food,[2],44-46%
same,Decrease of area under the curve (AUC) of the drug-time curve when administered with food,[2],18-20%
Entecavir-5′-docosanoate,Release of injectable suspension after intramuscular injection,"[1]; dog, in vivo",released sustainably and steady
